Reference: PubChem BioAssay AID330 (DTP/NCI, 2004)
Where “and” joins values, the source holds several entries; their conditions need not be identical. Equal values may be shown once. Toxic doses and inconclusive results are not listed. Peptide text beside a SMILES is read from it.

System: P388 leukemia ip, CD2F1 mice, survival T/C
Test: NCI In Vivo Anticancer Drug Screen. Data for tumor model P388 Leukemia (intraperitoneal) in CD2F1 (CDF1) mice
Settings: endpoint: median survival time, higher = longer survival
Summary of the method: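 Mice carrying the transplanted tumor received test compound or vehicle. Survival was recorded in each group, and the value is the treated-group measurement divided by that of the vehicle-treated control group.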

[1] = dose: 100.0 mg/kg/injection, schedule: Q01DX001 (ip), vehicle: saline with Tween-80
[2] = dose: 200.0 mg/kg/injection, schedule: Q01DX001 (ip), vehicle: saline with Tween-80
[3] = dose: 100.0 mg/kg/injection, schedule: Q04DX003 (ip), vehicle: saline with Tween-80
[4] = dose: 200.0 mg/kg/injection, schedule: Q04DX003 (ip), vehicle: saline with Tween-80
[5] = dose: 400.0 mg/kg/injection, schedule: Q04DX003 (ip), vehicle: saline with Tween-80
[6] = dose: 50.0 mg/kg/injection, schedule: Q01DX005 (ip), vehicle: Klucel (hydroxypropylcellulose) (HPC)
[7] = dose: 100.0 mg/kg/injection, schedule: Q01DX005 (ip), vehicle: Klucel (hydroxypropylcellulose) (HPC)
[8] = dose: 60.0 mg/kg/injection, schedule: Q01DX005 (ip), vehicle: Klucel (hydroxypropylcellulose) (HPC)
[9] = dose: 120.0 mg/kg/injection, schedule: Q01DX005 (ip), vehicle: Klucel (hydroxypropylcellulose) (HPC)
[10] = dose: 240.0 mg/kg/injection, schedule: Q01DX005 (ip), vehicle: Klucel (hydroxypropylcellulose) (HPC)
[11] = dose: 50.0 mg/kg/injection, schedule: Q01DX005 (ip), vehicle: saline
[12] = dose: 100.0 mg/kg/injection, schedule: Q01DX005 (ip), vehicle: saline
[13] = dose: 200.0 mg/kg/injection, schedule: Q01DX005 (ip), vehicle: saline
[14] = dose: 50.0 mg/kg/injection, schedule: Q01DX005 (ip), vehicle: saline with Tween-80
[15] = dose: 100.0 mg/kg/injection, schedule: Q01DX005 (ip), vehicle: saline with Tween-80
[16] = dose: 400.0 mg/kg/injection, schedule: Q01DX001 (ip), vehicle: saline with Tween-80
[17] = dose: 200.0 mg/kg/injection, schedule: Q01DX005 (ip), vehicle: Klucel (hydroxypropylcellulose) (HPC)

For `COc1cc(C)c(/C(=N/O)n2nnc(-c3ccc(C)cc3)n2)c(C)c1`, the T/C [1] was 92 % of control and the T/C [2] was 91 % of control.
`Cn1c2c(c(=O)c3c4c(=O)c5c([nH]c4ccc31)CCCC5)CCCC2` was tested, and the T/C [3] was 100 % of control, the T/C [4] was 94 % of control and the T/C [5] was 86 % of control.
`COc1cc2c(cc1OC)C1CC3(CCN1CC2)CC(=O)OC3=O` (centres undefined) was tested, and the T/C (dose: 50.0 mg/kg/injection, schedule: Q01DX005 (ip), vehicle: DMSO) was 108 % of control, the T/C (dose: 100.0 mg/kg/injection, schedule: Q01DX005 (ip), vehicle: DMSO) was 120 % of control and the T/C (dose: 200.0 mg/kg/injection, schedule: Q01DX005 (ip), vehicle: DMSO) was 119 % of control.
In the case of `CC[C@]12C=CCN3CC[C@@]4(c5ccc(OC)cc5N(C)[C@H]4[C@@](O)(C(=O)OC)[C@@H]1OC(C)=O)[C@@H]32`, the T/C [6] is reported as 98 % of control and the T/C [7] is reported as 97 % of control.
With `CN(C)c1ccc(C=C2C(=O)N(c3ccccc3)C(=S)N(c3ccccc3)C2=O)cc1` the T/C [8] was 90 % of control, the T/C [9] was 92 % of control and the T/C [10] was 92 % of control.
For `CC(NC(=O)C(Cc1ccccc1)NC(=O)C(N)CCCN=C(N)N)C(=O)O` (stereo not drawn) (H-Arg-Phe-Ala-OH; configuration not given here), the T/C [11] was 102 % of control, the T/C [12] was 101 % of control and the T/C [13] was 101 % of control.
For `O=C1C2C3C=CC(C2C(=O)N1COP(=O)(OCc1ccccc1)OCc1ccccc1)C1C2C(=O)N(COP(=O)(OCc4ccccc4)OCc4ccccc4)C(=O)C2C31` (centres undefined), the T/C (dose: 6.25 mg/kg/injection, schedule: Q01DX009 (ip), vehicle: saline + Tween-80 + alcohol) was 99 % of control, the T/C (dose: 12.5 mg/kg/injection, schedule: Q01DX009 (ip), vehicle: saline + Tween-80 + alcohol) was 105 % of control and the T/C (dose: 25.0 mg/kg/injection, schedule: Q01DX009 (ip), vehicle: saline + Tween-80 + alcohol) was 103 % of control. For the same compound, the T/C (dose: 50.0 mg/kg/injection, schedule: Q01DX009 (ip), vehicle: saline + Tween-80 + alcohol) was 106 % of control, the T/C (dose: 75.0 mg/kg/injection, schedule: Q01DX008 (ip), vehicle: saline + Tween-80 + alcohol) was 109 % of control and the T/C (dose: 100.0 mg/kg/injection, schedule: Q01DX009 (ip), vehicle: saline + Tween-80 + alcohol) was 107 % of control. For the same compound, the T/C (dose: 150.0 mg/kg/injection, schedule: Q01DX008 (ip), vehicle: saline + Tween-80 + alcohol) was 99 % of control and the T/C (dose: 300.0 mg/kg/injection, schedule: Q01DX008 (ip), vehicle: saline + Tween-80 + alcohol) was 100 % of control.
In the case of `Nc1nc(-c2ccc3ccccc3c2)cc(-c2cc(-c3ccc4ccccc4c3)nc(N)n2)n1`, the T/C [8] is reported as 96 % of control, the T/C [9] is reported as 93 % of control and the T/C [10] is reported as 91 % of control.
In the case of `O=NN(C(=O)NCCCl)c1[nH]c(=O)ncc1Cl`, the T/C (dose: 25.0 mg/kg/injection, schedule: Q01DX005 (ip), vehicle: Klucel (hydroxypropylcellulose) (HPC)) is reported as 97 % of control, the T/C [6] is reported as 100 % of control and the T/C [7] is reported as 108 % of control.
In the case of `O=NN(CC1(O)OCC(O)C(O)C1O)C(Cc1ccccc1)C(=O)O` (centres undefined), the T/C [11] is reported as 104 % of control, the T/C [12] is reported as 103 % of control and the T/C [13] is reported as 97 % of control.
`Cc1nn(-c2ccccc2)nc1CBr` was tested, and the T/C [14] was 97 % of control and the T/C [15] was 106 % of control.
`CCOC(=O)c1[nH]c2c(cc(C=O)c3ccccc32)c1C` was tested, and the T/C [1] was 92 % of control, the T/C [2] was 91 % of control and the T/C [16] was 90 % of control.
`Clc1ccc(C[P+](c2ccccc2)(c2ccccc2)c2ccccc2)c(Cl)c1` was tested, and the T/C (dose: 1.25 mg/kg/injection, schedule: Q01DX009 (ip), vehicle: saline sonified) was 109 % of control, the T/C (dose: 2.5 mg/kg/injection, schedule: Q01DX009 (ip), vehicle: saline sonified) was 109 % of control and the T/C (dose: 5.0 mg/kg/injection, schedule: Q01DX009 (ip), vehicle: saline sonified) was 118 % of control.
In the case of `O=c1[nH]cc(CS)c(=O)[nH]1`, the T/C (dose: 12.5 mg/kg/injection, schedule: Q01DX009 (ip), vehicle: saline) is reported as 102 % of control, the T/C (dose: 25.0 mg/kg/injection, schedule: Q01DX009 (ip), vehicle: saline) is reported as 108 % of control and the T/C (dose: 50.0 mg/kg/injection, schedule: Q01DX009 (ip), vehicle: saline) is reported as 100 % of control and 102 % of control. The T/C (dose: 100.0 mg/kg/injection, schedule: Q01DX009 (ip), vehicle: saline) was 103 % of control.
With `CCCCOc1cccc2c(NCCNc3c4ccccc4nc4c(OCCCC)cccc34)c3ccccc3nc12` the T/C (dose: 0.62 mg/kg/injection, schedule: Q01DX009 (ip), vehicle: other) was 105 % of control, the T/C (dose: 1.25 mg/kg/injection, schedule: Q01DX009 (ip), vehicle: other) was 109 % of control and the T/C (dose: 2.5 mg/kg/injection, schedule: Q01DX009 (ip), vehicle: other) was 101 % of control. The T/C (dose: 5.0 mg/kg/injection, schedule: Q01DX009 (ip), vehicle: other) was 100 % of control and the T/C (dose: 10.0 mg/kg/injection, schedule: Q01DX009 (ip), vehicle: other) was 100 % of control.
With `CCOC(=O)CCN(Cc1ccccc1)CC(C)C(=O)OC` (centres undefined) the T/C [3] was 100 % of control, the T/C [4] was 100 % of control and the T/C [5] was 100 % of control.
In the case of `N#C/C(=C\c1ccccc1)CN1CCCCC1`, the T/C [1] is reported as 110 % of control and the T/C [2] is reported as 122 % of control.
With `C[CH2][Pb]([CH2]C)([CH2]C)[n]1cnc2ccccc21` the T/C (dose: 0.75 mg/kg/injection, schedule: Q01DX009 (ip), vehicle: Klucel (hydroxypropylcellulose) (HPC)) was 99 % of control, the T/C (dose: 1.5 mg/kg/injection, schedule: Q01DX009 (ip), vehicle: Klucel (hydroxypropylcellulose) (HPC)) was 118 % of control and the T/C (dose: 3.0 mg/kg/injection, schedule: Q01DX009 (ip), vehicle: Klucel (hydroxypropylcellulose) (HPC)) was 118 % of control. For the same compound, the T/C (dose: 3.12 mg/kg/injection, schedule: Q04DX003 (ip), vehicle: Klucel (hydroxypropylcellulose) (HPC)) was 96 % of control, the T/C (dose: 6.25 mg/kg/injection, schedule: Q04DX003 (ip), vehicle: Klucel (hydroxypropylcellulose) (HPC)) was 114 % of control and the T/C (dose: 12.5 mg/kg/injection, schedule: Q04DX003 (ip), vehicle: Klucel (hydroxypropylcellulose) (HPC)) was 92 % of control.
In the case of `Nc1ccccc1S(=O)(=O)Nc1c(N)[nH]c(=S)[nH]c1=O`, the T/C [8] is reported as 105 % of control, the T/C [9] is reported as 99 % of control and the T/C [10] is reported as 113 % of control.
`C=CCN(CC=C)P(=O)(N1CC1)N1CC1C` (centres undefined) was tested, and the T/C (dose: 0.6 mg/kg/injection, schedule: Q01DX009 (ip), vehicle: saline) was 189 % of control and the T/C (dose: 0.9 mg/kg/injection, schedule: Q01DX009 (ip), vehicle: saline) was 174 % of control.
In the case of `CNC(=O)C1CCCCC1Br` (centres undefined), the T/C [6] is reported as 103 % of control, the T/C [7] is reported as 103 % of control and the T/C [17] is reported as 105 % of control.
In the case of `CCCCCCN(CCCCCC)c1nc(Cl)nc(NCC)n1`, the T/C [14] is reported as 111 % of control, the T/C [15] is reported as 103 % of control and the T/C (dose: 200.0 mg/kg/injection, schedule: Q01DX005 (ip), vehicle: saline with Tween-80) is reported as 103 % of control.
`CCn1c2ccccc2c2cc(N=Nc3cc4cc5ccccc5cc4cc3N)ccc21` was tested, and the T/C (dose: 100.0 mg/kg/injection, schedule: Q04DX003 (ip), vehicle: Klucel (hydroxypropylcellulose) (HPC)) was 101 % of control and the T/C (dose: 200.0 mg/kg/injection, schedule: Q04DX003 (ip), vehicle: Klucel (hydroxypropylcellulose) (HPC)) was 93 % of control.
With `COc1ccc2c(c1)OC(C)(C)C(c1ccccc1)=C2c1ccc2c(c1)NCCO2` the T/C (dose: 15.0 mg/kg/injection, schedule: Q01DX005 (ip), vehicle: saline with Tween-80) was 99 % of control, the T/C (dose: 30.0 mg/kg/injection, schedule: Q01DX005 (ip), vehicle: saline with Tween-80) was 91 % of control and the T/C (dose: 60.0 mg/kg/injection, schedule: Q01DX005 (ip), vehicle: saline with Tween-80) was 91 % of control.
For `COC(=O)C1(C(=O)O)ON1C(C)(C)C` (centres undefined), the T/C [6] was 100 % of control, the T/C [7] was 100 % of control and the T/C [17] was 99 % of control.
`CN(C)C=Nc1cc(Cl)c(Cl)cc1Cl` was tested, and the T/C (dose: 12.5 mg/kg/injection, schedule: Q01DX009 (ip), vehicle: saline with Tween-80) was 108 % of control, the T/C (dose: 25.0 mg/kg/injection, schedule: Q01DX009 (ip), vehicle: saline with Tween-80) was 106 % of control and the T/C (dose: 50.0 mg/kg/injection, schedule: Q01DX009 (ip), vehicle: saline with Tween-80) was 106 % of control.
`N#Cc1c(-c2ccccc2)sc2ccccc2c1=O` was tested, and the T/C [1] was 99 % of control, the T/C [2] was 93 % of control and the T/C [16] was 98 % of control.
`CSc1nc2n(Cc3cn(C)c(=O)n(C)c3=O)cc(C)cc-2c(=O)n1` was tested, and the T/C [1] was 96 % of control, the T/C [2] was 94 % of control and the T/C [16] was 94 % of control.
